Data taken from patent US20240287022A1 (Merck Sharp & Dohme LLC, priority 2021, published 2024).

Biological target: recombinant IL4I1 (Homo sapiens (Human), UniProt Q96RQ9)
Test: IL4I1 Enzymatic Assay (Amplex Red/HRP coupled H2O2 detection)
Type: biochemical
Details: 1 nM IL4I1, 1 mM each Phe/Tyr/Trp, four-hour pre-incubation, 120 minutes reaction, top compound concentration of 10000 nM
Experimental: Interleukin 4 inducible protein 1 (IL4I1) is an L-amino oxidase that catalyzes the oxidation of aromatic residues (Phe, Trp and Tyr): L-amino acid+H2O+O2→2-oxo acid+NH3+H2O2. Equal molar of H2O2 and the corresponding alpha-ketoacid are produced when IL4I1 and substrate are added. In this assay, the hydrogen peroxide generated by IL4I1 are then detected through a coupled reaction with Amplex Red (10-acetyl-3,7-dihydroxyphenoxazine) and […] (HRP) to produce Resorufin product that could be detected in the form of fluorescence signals. The assessment of the inhibitory effect of small molecules (EC50) on IL4I1 is measured by the effectiveness of the compounds to inhibit the production of H2O2.
Using this assay, the potency (EC50) of each compound was determined from a ten-point (1:3 serial dilution; top compound concentration of 10000 nM) titration curve using the following outlined procedure. To each well of a black flat-bottom Greiner (Cat #781076) 384 well-plate, 25 nL of compound (0.1% DMSO in final assay volume of 25 μL) was dispensed, followed by the addition of 12.5 μL of 1× assay buffer (50 mM Hepes 7.0 and 0.005% Tween20 (Sigma, Cat #P8341; low peroxide grade)) containing 2 nM of recombinant IL4I1 (R&D Systems, Cat #5684-AO-020). Plates were placed in an ambient temperature humidified chamber for a four-hour pre-incubation with compound. Subsequently, each reaction was initiated by the addition of 12.5 μL 1× assay buffer containing 2 mM of each aromatic amino acids (Phe/Tyr/Trp), 0.1 mM Amplex Red and 2 U/mL of HRP. The final reaction in each well of 25 μL consists of 1 nM of IL4I1, 1 mM of each residues (Phe, Tyr and Trp), 0.05 mM Amplex Red and 1 U/mL of HRP. It should be noted that the concentrations of Amplex Red and HRP used here are in excess such that the conversion of H2O2 to Resorufin product occurs instantaneously and non-rate limiting. Reactions were allowed to proceed for 120 minutes followed by fluorescence readout on a Spectramax with the following set parameters: 544 nm excitation/590 nm emission, 570 nm cutoff (EnVision is an alternative reader). Dose-response curves were generated by plotting percent effect (% product conversion; Y-axis) vs. Log10 compound concentrations (X-axis). EC50 values were calculated using a non-linear regression, four-parameters sigmoidal dose-response model.

Sequence of recombinant IL4I1 (Q96RQ9 22-567): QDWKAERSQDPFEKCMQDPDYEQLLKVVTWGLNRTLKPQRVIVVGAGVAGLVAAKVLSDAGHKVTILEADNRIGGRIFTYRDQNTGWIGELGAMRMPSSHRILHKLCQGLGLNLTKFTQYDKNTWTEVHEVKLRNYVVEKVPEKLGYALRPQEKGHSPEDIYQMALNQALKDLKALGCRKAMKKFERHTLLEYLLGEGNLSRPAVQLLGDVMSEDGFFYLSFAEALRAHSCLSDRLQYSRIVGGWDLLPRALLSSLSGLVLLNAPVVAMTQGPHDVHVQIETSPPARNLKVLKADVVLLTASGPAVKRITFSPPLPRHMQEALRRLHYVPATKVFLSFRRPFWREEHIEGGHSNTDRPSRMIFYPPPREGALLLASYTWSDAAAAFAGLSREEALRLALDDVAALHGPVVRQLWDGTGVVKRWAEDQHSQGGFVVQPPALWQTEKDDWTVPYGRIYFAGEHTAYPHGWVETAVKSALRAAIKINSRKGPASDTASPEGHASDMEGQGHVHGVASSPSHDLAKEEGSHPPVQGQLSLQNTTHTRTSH

| Compound | EC50 |
| --- | --- |
| O=c1[nH]c2ccccc2cc1Cc1nnc(CC2CC2)o1 [Example 27, 3-((5-(cyclopropylmethyl)-1,3,4-oxadiazol-2-yl)methyl)quinolin-2(1H)-one] | 0.0703 µM |
| CC(=O)NCc1ccc(Cc2cc3ccccc3[nH]c2=O)cn1 [Example 84, N-((5-((2-oxo-1,2-dihydroquinolin-3-yl)methyl)pyridin-2-yl)methyl)acetamide] | 0.0138 µM |
| CC1(Nc2ccc(Cc3cc4ccccc4[nH]c3=O)cc2)CNC1 [Example 58, 3-(4-((3-methylazetidin-3-yl)amino)benzyl)quinolin-2(1H)-one] | 0.0098 µM |
| COC(=O)NCc1nnc(Cc2cc3ccccc3[nH]c2=O)o1 [Example 43, methyl ((5-((2-oxo-1,2-dihydroquinolin-3-yl)methyl)-1,3,4-oxadiazol-2-yl)methyl)carbamate] | 0.588 µM |
| CC(=O)NCc1ncc(Cc2cc3ccccc3[nH]c2=O)cc1F [Example 82] | 0.01 µM |
| CS(=O)(=O)NCc1ccc(Cc2cc3ccccc3[nH]c2=O)cc1 [Example 73, N-(4-((2-oxo-1,2-dihydroquinolin-3-yl)methyl)benzyl)methanesulfonamide] | 0.0064 µM |
| O=c1[nH]c2ccccc2cc1Cc1nnc(-c2cn3cccnc3n2)o1 [Example 12, 3-((5-(imidazo[1,2-a]pyrimidin-2-yl)-1,3,4-oxadiazol-2-yl)methyl)quinolin-2(1H)-one] | 0.429 µM |
| O=C1NCCc2cc(Cc3cc4ccccc4[nH]c3=O)ccc21 [Example 78, 3-((1-oxo-1,2,3,4-tetrahydroisoquinolin-6-yl)methyl)quinolin-2(1H)-one] | 0.0107 µM |
| O=c1[nH]c2ccccc2cc1Cc1ccc2occc(=O)c2c1 [Example 130, 3-((4-oxo-4H-chromen-6-yl)methyl)quinolin-2(1H)-one] | 0.0018 µM |
| O=c1[nH]c2ccccc2cc1Cc1nnc(-c2ncnc3c2CCC3)o1 [Example 40, 3-((5-(6,7-dihydro-5H-cyclopenta[d]pyrimidin-4-yl)-1,3,4-oxadiazol-2-yl)methyl)quinolin-2(1H)-one] | 0.0234 µM |
| O=C1COc2ncc(Cc3cc4ccccc4[nH]c3=O)cc2N1 [Example 89, 7-((2-oxo-1,2-dihydroquinolin-3-yl)methyl)-1H-pyrido[2,3-b][1,4]oxazin-2(3H)-one] | 0.0045 µM |
| O=c1[nH]c2ccccc2cc1Cc1nnc(-c2cc(C(F)(F)F)[nH]n2)o1 [Example 28, 3-((5-(5-(trifluoromethyl)-1H-pyrazol-3-yl)-1,3,4-oxadiazol-2-yl)methyl)quinolin-2(1H)-one] | 0.125 µM |
| CC1CC(=O)NC1c1ccc(Cc2cc3ccccc3[nH]c2=O)cc1 (stereo not shown) [Example 45, 3-(4-(3-methyl-5-oxopyrrolidin-2-yl)benzyl)quinolin-2(1H)-one] | 0.0067 µM |
| CC1(CO)CN(c2ccc(Cc3cc4ccccc4[nH]c3=O)cn2)C(=O)O1 (racemic) [Example 50, rac-5-(hydroxymethyl)-5-methyl-3-(5-((2-oxo-1,2-dihydroquinolin-3-yl)methyl)pyridin-2-yl)oxazolidin-2-one] | 0.0189 µM |
| O=C1CC(Cc2nnc(Cc3cc4ccccc4[nH]c3=O)o2)CC(=O)N1 [Example 37, 4-((5-((2-oxo-1,2-dihydroquinolin-3-yl)methyl)-1,3,4-oxadiazol-2-yl)methyl)piperidine-2,6-dione] | 0.138 µM |
| O=c1[nH]c2ccccc2cc1Cc1nnc(Cc2ccc(Br)cc2)o1 [Example 23, 3-((5-(4-bromobenzyl)-1,3,4-oxadiazol-2-yl)methyl)quinolin-2(1H)-one] | 0.126 µM |
| CC(O)C(C#N)c1ccc(Cc2cc3ccccc3[nH]c2=O)cc1 (single isomer, unassigned) [Example 102C, 3-hydroxy-2-(4-((2-oxo-1,2-dihydroquinolin-3-yl)methyl)phenyl)butanenitrile] | 0.0118 µM |
| O=C1NCc2ccc(Cc3cc4cnccc4[nH]c3=O)cc21 [Example 118, 3-((3-oxoisoindolin-5-yl)methyl)-1,6-naphthyridin-2(1H)-one] | 0.0111 µM |
| O=c1[nH]c2ccccc2cc1Cc1nnc(Cc2cnccn2)o1 [Example 31, 3-((5-(pyrazin-2-ylmethyl)-1,3,4-oxadiazol-2-yl)methyl)quinolin-2(1H)-one] | 0.172 µM |
| CS(=O)(=O)Nc1ccc(Cc2cc3ccccc3[nH]c2=O)cn1 [Example 48, N-(5-((2-oxo-1,2-dihydroquinolin-3-yl)methyl)pyridin-2-yl)methanesulfonamide] | 0.0214 µM |
| O=C(c1ccc(Cc2cc3ccccc3[nH]c2=O)cc1)N1CC(O)C1 [Example 1, 3-(4-(3-hydroxyazetidine-1-carbonyl)benzyl)quinolin-2(1H)-one] | 0.0155 µM |
| O=c1[nH]c2ccccc2cc1Cc1ccc2c(c1)CCNC2 [Example 129, 3-((1,2,3,4-tetrahydroisoquinolin-6-yl)methyl)quinolin-2(1H)-one] | 0.0136 µM |

Continued, values first:

| EC50 | Compound |
| --- | --- |
| 0.0017 µM | N#CC1CC(Oc2ccc(Cc3cc4ccccc4[nH]c3=O)cc2)C1 (stereo not shown) [Example 146, 3-(4-((2-oxo-1,2-dihydroquinolin-3-yl)methyl)phenoxy)cyclobutane-1-carbonitrile] |
| 0.0169 µM | CC(=O)Nc1ccc(Cc2cc3ccccc3[nH]c2=O)cn1 [Example 150, N-(5-((2-oxo-1,2-dihydroquinolin-3-yl)methyl)pyridin-2-yl)acetamide] |
| 0.0157 µM | C[C@]1(c2ccc(Cc3cc4ccccc4[nH]c3=O)cc2)CCC(=O)N1 (single isomer, unassigned) [Example 183A, (S or R)-3-(4-(2-methyl-5-oxopyrrolidin-2-yl)benzyl)quinolin-2(1H)-one] |
| 0.099 µM | NCc1cccc2cc(Cc3cccc(OC(F)(F)F)c3)c(=O)[nH]c12 [Example 178, 8-(aminomethyl)-3-(3-(trifluoromethoxy)benzyl)quinolin-2(1H)-one] |
| 0.0073 µM | O=c1[nH]c2ccccc2cc1Cc1ccc(C2COCC2O)cc1 (stereo not shown) [Example 182, 3-(4-(4-hydroxytetrahydrofuran-3-yl)benzyl)quinolin-2(1H)-one] |
| 0.0023 µM | N#CC1(c2ccc(Cc3cc4ccccc4[nH]c3=O)cc2)COC1 [Example 147, 3-(4-((2-oxo-1,2-dihydroquinolin-3-yl)methyl)phenyl)oxetane-3-carbonitrile] |
| 0.0108 µM | O=c1[nH]c2ccccc2cc1Cc1ccc(CC2CNC2)cc1 [compound 64, 3-(4-(azetidin-3-ylmethyl)benzyl)quinolin-2(1H)-one] |
| 0.0014 µM | O=C1COc2c(F)cc(Cc3cc4ccccc4[nH]c3=O)cc2N1 [Example 176, 8-Fluoro-6-((2-oxo-1,2-dihydroquinolin-3-yl)methyl)-2H-benzo[b][1,4]oxazin-3(4H)-one] |
| 0.0025 µM | O=C1CCC(c2ccc(Cc3cc4ccccc4[nH]c3=O)cc2Cl)N1 (stereo not shown) [Example 181, 3-(3-chloro-4-(5-oxopyrrolidin-2-yl)benzyl)quinolin-2(1H)-one] |
| 0.0199 µM | CC1(N)CN(c2ccc(Cc3cc4ccccc4[nH]c3=O)cc2)C1 [compound 60, 3-(4-(3-amino-3-methylazetidin-1-yl)benzyl)quinolin-2(1H)-one] |
| 0.0286 µM | CS(=N)(=O)Cc1ccc(Cc2cc3ccccc3[nH]c2=O)cc1 (single isomer, unassigned) [Example 187, 3-(4-(((S or R)-methylsulfonimidoyl)methyl)benzyl)quinolin-2(1H)-one] |
| 0.0113 µM | O=c1[nH]c2ccccc2cc1Cc1cnn2c1CCC2 [Example 135, 3-((5,6-dihydro-4H-pyrrolo[1,2-b]pyrazol-3-yl)methyl)quinolin-2(1H)-one] |
